Measurements from article PMC3395780 (Journal of Medicinal Chemistry, 2012).
Read-outs that look alike come from different tables or passages of the source.

Assays:
[1] = test system: L5178Y mouse lymphoma cells; experiment: Mouse lymphoma cell tk+/−→tk−/− gene mutation; format: cell-based; details: for Mutation frequency response in MOLY assay: in the presence or absence of metabolic activation (S9), non-cytotoxic dose levels
[2] = test system: Salmonella typhimurium strain TA98; experiment: Ames assay, plate incorporation method; format: cell-based
[3] = test system: Salmonella typhimurium strain TA100; experiment: Ames assay, plate incorporation method; format: cell-based
[4] = test system: Mtb H37Rv; experiment: TB MIC – SRI, resazurin-based microplate assay; format: cell-based, Mycobacterium tuberculosis; details: lowest concentration inhibiting ≥90% growth
[5] = Plasma pharmacokinetics after oral administration to female mice; format: in vivo, mouse
[6] = test system: M. smegmatis; experiment: Antimicrobial spectrum of activity; format: cell-based; details: relative to activity against Mtb; SI Table 1
[7] = test system: M. abscessus; experiment: Antimicrobial spectrum of activity; format: cell-based; details: SI Table 1
[8] = test system: NRP Mtb H37Rv cells; experiment: Low-oxygen recovery assay; format: cell-based, Mycobacterium tuberculosis; details: non-replicating Mtb, anaerobic 10 d + 28-h recovery; ~90% inhibition
[9] = test system: Mtb H37Rv; experiment: TB MIC – ITR; format: cell-based, Mycobacterium tuberculosis; details: ITR laboratory
[10] = test system: Vero cells (Vero ATCC CCL-81); experiment: Cytotoxicity against Vero cells; details: 72 h incubation
[11] = test system: L5178Y mouse lymphoma cells; details: no reference printed at b52; cited from earlier work
[12] = in the presence and absence of metabolic activation (10% rat-liver S9)

## CCNc1n[n+]([O-])c2cc3c(cc2[n+]1[O-])CCC3 [Compound 15fa, 3-(ethylamino)-7,8-dihydro-6H-indeno[5,6-e][1,2,4]triazine 1,4-dioxide]
[1]; dose 10 μg/mL
  Mutagenic potential, +S9, 4-Hr Exposure: Positive
  Mutagenic potential, +S9, 24-Hr Exposure: Positive
  Mutagenic potential, −S9, 4-Hr Exposure: Positive
[1]; dose 25 μg/mL
  Mutagenic potential, +S9, 4-Hr Exposure: Positive
  Mutagenic potential, +S9, 24-Hr Exposure: Positive
  Mutagenic potential, −S9, 4-Hr Exposure: Positive
[1]; dose 50 μg/mL
  Mutagenic potential, +S9, 4-Hr Exposure: Positive
  Mutagenic potential, +S9, 24-Hr Exposure: Positive
  Mutagenic potential, −S9, 4-Hr Exposure: Positive
[1]; dose 100 μg/mL
  Mutagenic potential, +S9, 4-Hr Exposure: Positive
  Mutagenic potential, +S9, 24-Hr Exposure: Positive
  Mutagenic potential, −S9, 4-Hr Exposure: Positive
[1]
  Mutation frequency response in MOLY assay: significant increase in mutation frequency
[2]
  Number of revertant colonies, strain TA98: dose-related increases in the number of revertant colonies
[3]
  Number of revertant colonies, strain TA100: dose-related increases in the number of revertant colonies

## 7-chloro-3-((1-methoxybutan-2-yl)amino)benzo[e][1,2,4]triazine 1,4-dioxide [Compound 15bi]
[4]
  TB MIC – SRI: 1.2 µg/mL

## [O-][n+]1nc(N2CCCC2)[n+]([O-])c2cc3c(cc21)CCC3 [Compound 20q, 3-(pyrrolidin-1-yl)-7,8-dihydro-6H-indeno[5,6-e][1,2,4]triazine 1,4-dioxide]
[5]; female mice, 100 mg/kg po, n = 3 per time point
  Plasma drug concentration at the 24 hr time point: lower than the limit of quantitation
[1]; at concentrations up to 100 μg/mL
  Mutagenic activity in MOLY assay: no mutagenic activity
[1]; dose 10 μg/mL
  Mutagenic potential, +S9, 4-Hr Exposure: Negative
  Mutagenic potential, −S9, 4-Hr Exposure: Negative
  Mutagenic potential, −S9, 24-Hr Exposure: Negative
[1]; dose 25 μg/mL
  Mutagenic potential, +S9, 4-Hr Exposure: Negative ^a
  Mutagenic potential, +S9, 24-Hr Exposure: Negative
  Mutagenic potential, −S9, 4-Hr Exposure: Negative
  Mutagenic potential, −S9, 24-Hr Exposure: Negative
[1]; dose 50 μg/mL
  Mutagenic potential, +S9, 4-Hr Exposure: Negative
  Mutagenic potential, +S9, 24-Hr Exposure: Negative
  Mutagenic potential, −S9, 4-Hr Exposure: Negative
  Mutagenic potential, −S9, 24-Hr Exposure: Negative
[1]; dose 100 μg/mL
  Mutagenic potential, +S9, 4-Hr Exposure: Negative
  Mutagenic potential, +S9, 24-Hr Exposure: Negative
  Mutagenic potential, −S9, 4-Hr Exposure: Negative
  Mutagenic potential, −S9, 24-Hr Exposure: Negative
[1]
  Mutation frequency response in MOLY assay: negative response
[6]
  Antimicrobial activity against M. smegmatis: weaker activity
[7]
  Antimicrobial activity against M. abscessus: resistant
[2]; [12]
  Number of revertant colonies, strain TA98: dose-related increases in the number of revertant colonies
[3]; [12]
  Number of revertant colonies, strain TA100: dose-related increases in the number of revertant colonies

## 7-fluoro-3-((1-methoxybutan-2-yl)amino)benzo[e][1,2,4]triazine 1,4-dioxide [Compound 15ai]
[8]
  LORA MIC – ITR: 1.9 µg/mL
[4]
  TB MIC – SRI: 5.0 µg/mL
[9]
  TB MIC – ITR: 2.0 µg/mL
[10]
  Vero Tox CC50: 6.3 µg/mL

## Nc1n[n+]([O-])c2ccccc2[n+]1[O-] [TPZ, tirapazamine]
[11]
  Mutagenicity in MOLY assay: mutagenic

## 3-((1-methoxybutan-2-yl)amino)benzo[e][1,2,4]triazine 1,4-dioxide [Compound 8i]
[8]
  LORA MIC – ITR: 4.9 µg/mL
[4]
  TB MIC – SRI: 10.0 µg/mL
[9]
  TB MIC – ITR: 6.6 µg/mL
[10]
  Vero Tox CC50: >50 µg/mL

## CCNc1n[n+]([O-])c2ccccc2[n+]1[O-] [Compound 8a, 3-(ethylamino)benzo[e][1,2,4]triazine 1,4-dioxide]
[5]; mouse, in vivo, po, 100 mg/kg
  Plasma drug concentration at the 24 hr time point: lower than the limit of quantitation
[6]
  Antimicrobial activity against M. smegmatis: weaker activity
[7]
  Antimicrobial activity against M. abscessus: resistant
